Numbers after ± are expanded uncertainties.
Key:
[1] = refractive index (Na D-line) (dimensionless); xn = mol fraction of the nth substance listed; details: 101 kPa, Liquid, Standard Abbe refractometry
[2] = xn = mol fraction of the nth substance listed; details: 101 kPa, Liquid; for viscosity: Stabinger Viscometer; for mass density: Vibrating tube method

## CCn1cc[n+](C)c1.O=C([O-])[C@@H]1CCCN1 [1-ethyl-3-methyl-1H-imidazolium L-prolinate] + CCn1cc[n+](C)c1.N#C[C-](C#N)C#N
[1]; 293.15 K, x2 = 0
  refractive index: 1.52291 ± 0.00069
[1]; 293.15 K, x2 = 0.2501
  refractive index: 1.52057 ± 0.00086
[1]; 293.15 K, x2 = 0.5002
  refractive index: 1.5191 ± 0.00083
[1]; 293.15 K, x2 = 0.7501
  refractive index: 1.51665 ± 0.00096
[1]; 298.15 K, x2 = 0
  refractive index: 1.52151 ± 0.00069
[1]; 298.15 K, x2 = 0.2501
  refractive index: 1.51913 ± 0.00086
[1]; 298.15 K, x2 = 0.5002
  refractive index: 1.5176 ± 0.00083
[1]; 298.15 K, x2 = 0.7501
  refractive index: 1.51508 ± 0.00096
[1]; 303.15 K, x2 = 0
  refractive index: 1.52009 ± 0.00069
[1]; 303.15 K, x2 = 0.2501
  refractive index: 1.51769 ± 0.00086
[1]; 303.15 K, x2 = 0.5002
  refractive index: 1.51611 ± 0.00083
[1]; 303.15 K, x2 = 0.7501
  refractive index: 1.51349 ± 0.00096
[1]; 308.15 K, x2 = 0
  refractive index: 1.5187 ± 0.00069
[1]; 308.15 K, x2 = 0.2501
  refractive index: 1.51622 ± 0.00086
[1]; 308.15 K, x2 = 0.5002
  refractive index: 1.5146 ± 0.00083
[1]; 308.15 K, x2 = 0.7501
  refractive index: 1.5119 ± 0.00096
[1]; 313.15 K, x2 = 0
  refractive index: 1.51731 ± 0.00069
[1]; 313.15 K, x2 = 0.2501
  refractive index: 1.51477 ± 0.00086
[1]; 313.15 K, x2 = 0.5002
  refractive index: 1.51306 ± 0.00083
[1]; 313.15 K, x2 = 0.7501
  refractive index: 1.51033 ± 0.00096
[1]; 318.15 K, x2 = 0
  refractive index: 1.51591 ± 0.00069
[1]; 318.15 K, x2 = 0.2501
  refractive index: 1.51333 ± 0.00086
[1]; 318.15 K, x2 = 0.5002
  refractive index: 1.51153 ± 0.00083
[1]; 318.15 K, x2 = 0.7501
  refractive index: 1.50875 ± 0.00096
[1]; 323.15 K, x2 = 0
  refractive index: 1.51454 ± 0.00069
[1]; 323.15 K, x2 = 0.2501
  refractive index: 1.51191 ± 0.00086
[1]; 323.15 K, x2 = 0.5002
  refractive index: 1.51006 ± 0.00083
[1]; 323.15 K, x2 = 0.7501
  refractive index: 1.50717 ± 0.00096
[1]; 328.15 K, x2 = 0
  refractive index: 1.51315 ± 0.00069
[1]; 328.15 K, x2 = 0.2501
  refractive index: 1.51046 ± 0.00086
[1]; 328.15 K, x2 = 0.5002
  refractive index: 1.50858 ± 0.00083
[1]; 328.15 K, x2 = 0.7501
  refractive index: 1.50561 ± 0.00096
[1]; 333.15 K, x2 = 0
  refractive index: 1.51177 ± 0.00069
[1]; 333.15 K, x2 = 0.2501
  refractive index: 1.50899 ± 0.00086
[1]; 333.15 K, x2 = 0.5002
  refractive index: 1.5071 ± 0.00083
[1]; 333.15 K, x2 = 0.7501
  refractive index: 1.504 ± 0.00096
[1]; 338.15 K, x2 = 0
  refractive index: 1.51035 ± 0.00069
[1]; 338.15 K, x2 = 0.2501
  refractive index: 1.50752 ± 0.00086
[1]; 338.15 K, x2 = 0.5002
  refractive index: 1.50564 ± 0.00083
[1]; 338.15 K, x2 = 0.7501
  refractive index: 1.50249 ± 0.00096
[1]; 343.15 K, x2 = 0
  refractive index: 1.50897 ± 0.00069
[1]; 343.15 K, x2 = 0.2501
  refractive index: 1.50611 ± 0.00086
[1]; 343.15 K, x2 = 0.5002
  refractive index: 1.50412 ± 0.00083
[1]; 343.15 K, x2 = 0.7501
  refractive index: 1.50096 ± 0.00096
[1]; 348.15 K, x2 = 0
  refractive index: 1.50757 ± 0.00069
[1]; 348.15 K, x2 = 0.2501
  refractive index: 1.50461 ± 0.00086
[1]; 348.15 K, x2 = 0.5002
  refractive index: 1.50269 ± 0.00083
[1]; 348.15 K, x2 = 0.7501
  refractive index: 1.49941 ± 0.00096
[1]; 353.15 K, x2 = 0
  refractive index: 1.5062 ± 0.00069
[1]; 353.15 K, x2 = 0.2501
  refractive index: 1.50319 ± 0.00086
[1]; 353.15 K, x2 = 0.5002
  refractive index: 1.50126 ± 0.00083
[1]; 353.15 K, x2 = 0.7501
  refractive index: 1.49791 ± 0.00096
[2]; 293.15 K, x2 = 0
  viscosity: 1928.4 ± 240 mPa·s
  mass density: 1145.9 ± 12 kg/m3
[2]; 293.15 K, x2 = 0.2501
  viscosity: 731.38 ± 67 mPa·s
  mass density: 1131.7 ± 12 kg/m3
[2]; 293.15 K, x2 = 0.5002
  viscosity: 183.74 ± 11 mPa·s
  mass density: 1116.4 ± 11 kg/m3
[2]; 293.15 K, x2 = 0.7501
  viscosity: 49.1 ± 1.2 mPa·s
  mass density: 1100.6 ± 11 kg/m3
[2]; 298.15 K, x2 = 0
  viscosity: 1194.6 ± 130 mPa·s
  mass density: 1142.8 ± 12 kg/m3
[2]; 298.15 K, x2 = 0.2501
  viscosity: 474.82 ± 37 mPa·s
  mass density: 1128.4 ± 11 kg/m3
[2]; 298.15 K, x2 = 0.5002
  viscosity: 131.11 ± 6.8 mPa·s
  mass density: 1113.1 ± 11 kg/m3
[2]; 298.15 K, x2 = 0.7501
  viscosity: 38.6 ± 0.93 mPa·s
  mass density: 1097.2 ± 11 kg/m3
[2]; 303.15 K, x2 = 0
  viscosity: 771.51 ± 72 mPa·s
  mass density: 1139.6 ± 12 kg/m3
[2]; 303.15 K, x2 = 0.2501
  viscosity: 320.94 ± 21 mPa·s
  mass density: 1125.1 ± 11 kg/m3
[2]; 303.15 K, x2 = 0.5002
  viscosity: 96.6 ± 4.5 mPa·s
  mass density: 1109.8 ± 11 kg/m3
[2]; 303.15 K, x2 = 0.7501
  viscosity: 30.96 ± 0.75 mPa·s
  mass density: 1093.8 ± 11 kg/m3
[2]; 308.15 K, x2 = 0
  viscosity: 517.61 ± 42 mPa·s
  mass density: 1136.4 ± 12 kg/m3
[2]; 308.15 K, x2 = 0.2501
  viscosity: 224.85 ± 12 mPa·s
  mass density: 1121.8 ± 11 kg/m3
[2]; 308.15 K, x2 = 0.5002
  viscosity: 73.15 ± 3.2 mPa·s
  mass density: 1106.6 ± 11 kg/m3
[2]; 308.15 K, x2 = 0.7501
  viscosity: 25.29 ± 0.61 mPa·s
  mass density: 1090.4 ± 11 kg/m3
[2]; 313.15 K, x2 = 0
  viscosity: 359.21 ± 25 mPa·s
  mass density: 1133.2 ± 12 kg/m3
[2]; 313.15 K, x2 = 0.2501
  viscosity: 162.54 ± 7.1 mPa·s
  mass density: 1118.7 ± 11 kg/m3
[2]; 313.15 K, x2 = 0.5002
  viscosity: 56.72 ± 2.4 mPa·s
  mass density: 1103.3 ± 11 kg/m3
[2]; 313.15 K, x2 = 0.7501
  viscosity: 21 ± 0.51 mPa·s
  mass density: 1087 ± 11 kg/m3
[2]; 318.15 K, x2 = 0
  viscosity: 256.92 ± 15 mPa·s
  mass density: 1130.1 ± 12 kg/m3
[2]; 318.15 K, x2 = 0.2501
  viscosity: 120.81 ± 4.4 mPa·s
  mass density: 1115.5 ± 11 kg/m3
[2]; 318.15 K, x2 = 0.5002
  viscosity: 44.93 ± 1.9 mPa·s
  mass density: 1100.1 ± 11 kg/m3
[2]; 318.15 K, x2 = 0.7501
  viscosity: 17.68 ± 0.43 mPa·s
  mass density: 1083.7 ± 11 kg/m3
[2]; 323.15 K, x2 = 0
  viscosity: 188.66 ± 9.1 mPa·s
  mass density: 1127.1 ± 12 kg/m3
[2]; 323.15 K, x2 = 0.2501
  viscosity: 92 ± 2.8 mPa·s
  mass density: 1112.4 ± 11 kg/m3
[2]; 323.15 K, x2 = 0.5002
  viscosity: 36.25 ± 1.5 mPa·s
  mass density: 1096.8 ± 11 kg/m3
[2]; 323.15 K, x2 = 0.7501
  viscosity: 15.08 ± 0.37 mPa·s
  mass density: 1080.3 ± 11 kg/m3
[2]; 328.15 K, x2 = 0
  viscosity: 141.76 ± 5.8 mPa·s
  mass density: 1124 ± 12 kg/m3
[2]; 328.15 K, x2 = 0.2501
  viscosity: 71.61 ± 1.9 mPa·s
  mass density: 1109.3 ± 11 kg/m3
[2]; 328.15 K, x2 = 0.5002
  viscosity: 29.73 ± 1.3 mPa·s
  mass density: 1093.6 ± 11 kg/m3
[2]; 328.15 K, x2 = 0.7501
  viscosity: 13 ± 0.31 mPa·s
  mass density: 1077 ± 11 kg/m3
[2]; 333.15 K, x2 = 0
  viscosity: 108.85 ± 3.8 mPa·s
  mass density: 1121 ± 11 kg/m3
[2]; 333.15 K, x2 = 0.2501
  viscosity: 56.8 ± 1.4 mPa·s
  mass density: 1106.2 ± 11 kg/m3
[2]; 333.15 K, x2 = 0.5002
  viscosity: 24.75 ± 1.1 mPa·s
  mass density: 1090.4 ± 11 kg/m3
[2]; 333.15 K, x2 = 0.7501
  viscosity: 11.32 ± 0.27 mPa·s
  mass density: 1073.6 ± 11 kg/m3
[2]; 338.15 K, x2 = 0
  viscosity: 85.12 ± 2.6 mPa·s
  mass density: 1118 ± 11 kg/m3
[2]; 338.15 K, x2 = 0.2501
  viscosity: 45.83 ± 1.2 mPa·s
  mass density: 1103.1 ± 11 kg/m3
[2]; 338.15 K, x2 = 0.5002
  viscosity: 20.87 ± 0.89 mPa·s
  mass density: 1087.2 ± 11 kg/m3
[2]; 338.15 K, x2 = 0.7501
  viscosity: 9.95 ± 0.24 mPa·s
  mass density: 1070.3 ± 11 kg/m3
[2]; 343.15 K, x2 = 0
  viscosity: 67.69 ± 1.8 mPa·s
  mass density: 1115 ± 11 kg/m3
[2]; 343.15 K, x2 = 0.2501
  viscosity: 37.55 ± 0.95 mPa·s
  mass density: 1100 ± 11 kg/m3
[2]; 343.15 K, x2 = 0.5002
  viscosity: 17.8 ± 0.76 mPa·s
  mass density: 1084 ± 11 kg/m3
[2]; 343.15 K, x2 = 0.7501
  viscosity: 8.82 ± 0.21 mPa·s
  mass density: 1067 ± 11 kg/m3
[2]; 348.15 K, x2 = 0
  viscosity: 54.73 ± 1.4 mPa·s
  mass density: 1112 ± 11 kg/m3
[2]; 348.15 K, x2 = 0.2501
  viscosity: 31.2 ± 0.79 mPa·s
  mass density: 1096.9 ± 11 kg/m3
[2]; 348.15 K, x2 = 0.5002
  viscosity: 15.35 ± 0.65 mPa·s
  mass density: 1080.8 ± 11 kg/m3
[2]; 348.15 K, x2 = 0.7501
  viscosity: 7.87 ± 0.19 mPa·s
  mass density: 1063.8 ± 11 kg/m3
[2]; 353.15 K, x2 = 0
  viscosity: 44.89 ± 1.2 mPa·s
  mass density: 1109.1 ± 11 kg/m3
[2]; 353.15 K, x2 = 0.2501
  viscosity: 26.24 ± 0.67 mPa·s
  mass density: 1093.8 ± 11 kg/m3
[2]; 353.15 K, x2 = 0.5002
  viscosity: 13.37 ± 0.57 mPa·s
  mass density: 1077.7 ± 11 kg/m3
[2]; 353.15 K, x2 = 0.7501
  viscosity: 7.07 ± 0.17 mPa·s
  mass density: 1060.5 ± 11 kg/m3
